Several values for one entry are separate records, joined by “and”; a condition that tells them apart may be missing. Equal entries are not always repeated. Where two headings read alike, the source gives them in different places.
How the values were obtained:
α7 nAChR = target: T1, α7 nAChR (Homo sapiens, UniProt P36544); test: Two-electrode voltage clamp of ACh currents, α7 nAChRs (with RIC-3) expressed in Xenopus oocytes; format: cell-based; conditions: for IC50: IC50 (95% CI), ACh 100 μM
T1 construct: expressed in transfected cells; host or cells: Xenopus laevis oocytes injected with cRNA
Method: (§1) Oocytes isolated from mature female Xenopus laevis were supplied by the European Xenopus Resource Centre, University of Portsmouth, UK. Oocytes were treated with collagenase (0.5 mg/ml, Sigma type 1 A) in Ca^2+-free solution (96 mM NaCl, 2 mM KCl, 1 mM MgCl2, 5 mM HEPES, 2.5 mM Na-pyruvate, 100 U/mL penicillin, 0.1 mg/mL streptomycin, pH 7.5) with shaking at 19 °C to defolliculate and remove the connective tissue surrounding the cells. After separation, oocytes were washed 7 times with modified Barth’s solution (96 mM NaCl, 2 mM KCl, 1.8 mM CaCl2, 1 mM MgCl2, 5 mM HEPES, 2.5 mM Na-pyruvate, 0.5 mM theophylline, 50 μg/mL gentamicin, pH 7.5) and kept at 19 °C in the same solution.
(§2) Healthy oocytes were injected with cRNA using a Nano-liter Injector (World Precision Instruments Inc, USA). Mixtures of nAChR subunit cRNAs were injected as follows; for heteromeric rat neuronal receptors a 1:1 ratio of α:β at 200 ng/μL; for mouse embryonic muscle a 1:1:1:1 ratio of α:β:γ:δ at 25 ng/μL; human α7 at 100 ng/μL was mixed with RIC-3 at 30 ng/μL. Each oocyte was injected with 50 nL of RNA solution. Injected oocytes were saved in Barth’s solution at 19 °C for two to three days for expression of the target protein. During this time oocytes were regularly checked to remove unhealthy ones.
(§3) Electrophysiological recordings were taken from nAChR-expressing oocytes by two-electrode voltage clamp using a Geneclamp 500 voltage clamp amplifier (Axon instruments, USA). An oocyte was placed in the perfusion chamber using a plastic Pasteur pipette and the bath was perfused (~5 mL/min) with fresh Frog Ringer solution (96 mM NaCl, 2 mM KCl, 1.8 mM CaCl2 and 5 mM HEPES, pH 7.5). Microelectrodes were pulled from borosilicate glass capillaries (Harvard GC150TF-10) using a programmable micropipette puller (Sutter P97, USA), and they had resistances between 0.5 and 2.5 MΩ when filled with 3 M KCl. The oocyte was voltage-clamped at holding potentials (VH) between −60 and −100 mV. […] Currents were recorded to a PC via a digidata 1200 analog-to-digital converter (Axon Instuments, USA) using WinEDR v3.2.6 Software (Dr John Dempster, University of Strathclyde, UK).
(§4) Graphpad Prism 6 was used for data analysis, graph plotting and curve fitting. All plotted points are the mean ± SEM obtained from 4–20 oocytes.

[1] = system: human muscle-type nAChRs in TE671 cells; test: Muscle-type nAChRs in TE671 cells (previous study); format: cell-based; conditions: previous study compared with present oocyte data ref 8
α4β2 nAChR = target: T2, α4β2 nAChR (Rattus norvegicus, UniProt P09483+P12390); test: cell-based; format: cell-based; conditions: for IC50: IC50 (95% CI), ACh 10 μM
T2 construct: expressed in transfected cells; host or cells: Xenopus laevis oocytes injected with cRNA
Method: (§5) cDNA clones of rat neuronal nAChR subunits (α3, α4, β2 and β4) and mouse muscle subunits (α1, β1, γ and δ) were from the Salk Institute for Biological Studies (Professor Stephen Heinemann). The human α7 and RIC-3 cDNAs were provided by Professor David Sattelle (University College London).
as §1, §2, §3, §4

α1β1γδ nAChR = target: T3, α1β1γδ nAChR (Mus musculus, UniProt P02716+P04756+P04760+P09690); test: cell-based; format: cell-based; conditions: α1β1γδ; for IC50: IC50 (95% CI), ACh 10 μM
T3 construct: expressed in transfected cells; host or cells: Xenopus laevis oocytes injected with cRNA
Method: as §1, §2, §3, §4

α3β4 nAChR = target: T4, α3β4 nAChR (Rattus norvegicus, UniProt P04757+P12392); test: cell-based
T4 construct: expressed in transfected cells; host or cells: Xenopus laevis oocytes injected with cRNA
Method: as §1, §2, §3, §4

α3β2 nAChR = α3β2 nAChR (Rattus norvegicus, UniProt P04757+P12390); test: Two-electrode voltage clamp of ACh currents, α3β2 nAChRs expressed in Xenopus oocytes; conditions: for IC50: IC50 (95% CI), ACh 30 μM
Method: as §1, §2, §3, §4

nAChRs = test: Two-electrode voltage clamp of Xenopus oocytes expressing nAChRs, statements across tested subtypes; format: cell-based
Method: as §5, §1, §2, §3, §4

α3β4(F255V) nAChR = target: T5, α3β4(F255V) nAChR (Rattus norvegicus, UniProt P04757+P12392, F275V); test: Two-electrode voltage clamp of ACh currents, α3β4(F255V) nAChRs expressed in Xenopus oocytes; format: cell-based; conditions: for IC50: α3β4(F255V), ACh 100 μM
T5 construct: expressed in transfected cells; host or cells: Xenopus laevis oocytes injected with cRNA
Method: as §5, §1, §2, §3, §4

α4β2(V253F) nAChR = target: T6, α4β2(V253F) nAChR (Rattus norvegicus, UniProt P09483+P12390, V277F); test: Two-electrode voltage clamp of ACh currents, α4β2(V253F) nAChRs expressed in Xenopus oocytes; format: cell-based; conditions: for IC50: α4β2(V253F), ACh 10 μM
T6 construct: expressed in transfected cells; host or cells: Xenopus laevis oocytes injected with cRNA
Method: as §5, §1, §2, §3, §4

α4β4 nAChR = target: T7, α4β4 nAChR (Rattus norvegicus, UniProt P09483+P12392); test: cell-based; format: cell-based; conditions: for IC50: IC50 (95% CI), ACh 10 μM
T7 construct: expressed in transfected cells; host or cells: Xenopus laevis oocytes injected with cRNA
Method: as §1, §2, §3, §4

[2] = VH −60 mV, late current (1 min), read-out: IC50 (95% CI), Late
[3] = VH −60 mV, peak current, read-out: IC50 (95% CI), Peak
[4] = VH −80 mV, late current (1 min), read-out: IC50 (95% CI), Late
[5] = VH −80 mV, peak current, read-out: IC50 (95% CI), Peak
[6] = VH −100 mV, late current (1 min), read-out: IC50 (95% CI), Late
[7] = VH −100 mV, peak current, read-out: IC50 (95% CI), Peak

T5 sequence (P04757 26-499): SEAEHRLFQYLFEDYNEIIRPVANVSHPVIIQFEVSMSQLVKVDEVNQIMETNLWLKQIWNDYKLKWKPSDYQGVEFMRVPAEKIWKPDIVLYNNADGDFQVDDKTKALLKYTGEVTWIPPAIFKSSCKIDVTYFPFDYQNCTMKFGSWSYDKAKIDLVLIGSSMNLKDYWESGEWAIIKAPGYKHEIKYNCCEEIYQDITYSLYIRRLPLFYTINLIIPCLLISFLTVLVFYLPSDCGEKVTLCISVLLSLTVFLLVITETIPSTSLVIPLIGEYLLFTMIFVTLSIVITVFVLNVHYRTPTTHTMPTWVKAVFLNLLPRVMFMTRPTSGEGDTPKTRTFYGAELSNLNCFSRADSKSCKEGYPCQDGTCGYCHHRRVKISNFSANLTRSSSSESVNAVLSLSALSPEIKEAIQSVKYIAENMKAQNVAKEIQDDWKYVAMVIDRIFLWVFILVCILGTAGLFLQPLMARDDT
T5 sequence (P12392 21-495 F275V): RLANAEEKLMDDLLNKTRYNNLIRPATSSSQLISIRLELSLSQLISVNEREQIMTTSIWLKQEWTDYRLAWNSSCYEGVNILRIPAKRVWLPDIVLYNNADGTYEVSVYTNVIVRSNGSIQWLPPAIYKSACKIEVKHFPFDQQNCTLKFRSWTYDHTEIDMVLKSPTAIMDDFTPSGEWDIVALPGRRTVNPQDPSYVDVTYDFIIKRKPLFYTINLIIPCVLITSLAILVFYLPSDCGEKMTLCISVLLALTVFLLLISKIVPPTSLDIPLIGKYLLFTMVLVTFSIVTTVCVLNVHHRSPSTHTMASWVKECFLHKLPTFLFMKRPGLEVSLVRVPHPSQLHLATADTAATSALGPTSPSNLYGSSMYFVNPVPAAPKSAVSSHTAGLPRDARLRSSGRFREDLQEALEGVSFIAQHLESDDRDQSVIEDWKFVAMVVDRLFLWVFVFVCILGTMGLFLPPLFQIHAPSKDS
Chain of α3β2 nAChR (P04757 26-499): as the sequence (P04757 26-499) above
Chain of α3β2 nAChR (P12390 25-500): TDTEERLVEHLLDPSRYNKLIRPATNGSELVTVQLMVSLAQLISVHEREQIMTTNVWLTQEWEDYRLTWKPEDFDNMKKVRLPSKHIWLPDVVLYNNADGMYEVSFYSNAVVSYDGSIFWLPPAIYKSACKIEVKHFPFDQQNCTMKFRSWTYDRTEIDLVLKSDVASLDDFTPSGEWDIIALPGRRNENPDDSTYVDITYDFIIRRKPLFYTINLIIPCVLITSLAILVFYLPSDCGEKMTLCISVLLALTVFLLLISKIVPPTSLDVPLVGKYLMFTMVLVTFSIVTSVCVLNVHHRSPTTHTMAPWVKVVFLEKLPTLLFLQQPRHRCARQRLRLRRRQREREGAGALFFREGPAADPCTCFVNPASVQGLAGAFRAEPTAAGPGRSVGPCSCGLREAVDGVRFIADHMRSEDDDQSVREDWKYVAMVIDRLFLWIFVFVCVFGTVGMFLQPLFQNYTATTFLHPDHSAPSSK
T4 sequence (P04757 26-499): as the sequence (P04757 26-499) above
T4 sequence (P12392 21-495): as the sequence (P12392 21-495 F275V) above, with V255F counted along it
T3 sequence (P04756 21-457): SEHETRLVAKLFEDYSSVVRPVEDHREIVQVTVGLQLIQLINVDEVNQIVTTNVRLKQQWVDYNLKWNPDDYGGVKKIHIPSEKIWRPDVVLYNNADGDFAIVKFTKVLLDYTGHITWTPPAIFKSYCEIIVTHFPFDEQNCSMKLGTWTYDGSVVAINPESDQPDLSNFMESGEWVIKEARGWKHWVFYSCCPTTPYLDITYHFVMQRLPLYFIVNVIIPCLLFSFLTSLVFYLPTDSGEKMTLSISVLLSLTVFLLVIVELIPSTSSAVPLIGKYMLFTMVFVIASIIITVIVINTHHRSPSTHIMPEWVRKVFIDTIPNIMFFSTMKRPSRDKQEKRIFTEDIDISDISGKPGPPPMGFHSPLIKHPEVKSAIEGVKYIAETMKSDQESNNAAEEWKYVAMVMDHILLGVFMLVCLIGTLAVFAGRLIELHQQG
T3 sequence (P09690 24-501): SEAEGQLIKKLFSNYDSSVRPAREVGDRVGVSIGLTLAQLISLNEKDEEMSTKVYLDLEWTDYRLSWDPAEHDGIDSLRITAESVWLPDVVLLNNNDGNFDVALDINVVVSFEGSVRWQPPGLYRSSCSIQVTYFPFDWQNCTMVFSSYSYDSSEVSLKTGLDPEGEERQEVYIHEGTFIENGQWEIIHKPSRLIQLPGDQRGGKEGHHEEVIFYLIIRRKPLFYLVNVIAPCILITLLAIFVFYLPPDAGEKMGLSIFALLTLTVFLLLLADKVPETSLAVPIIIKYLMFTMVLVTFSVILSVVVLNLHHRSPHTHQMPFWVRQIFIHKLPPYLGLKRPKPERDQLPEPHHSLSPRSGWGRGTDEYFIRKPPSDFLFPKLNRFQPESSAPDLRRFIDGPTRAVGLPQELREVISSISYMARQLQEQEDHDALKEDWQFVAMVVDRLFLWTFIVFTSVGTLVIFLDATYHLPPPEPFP
T3 sequence (P04760 23-519): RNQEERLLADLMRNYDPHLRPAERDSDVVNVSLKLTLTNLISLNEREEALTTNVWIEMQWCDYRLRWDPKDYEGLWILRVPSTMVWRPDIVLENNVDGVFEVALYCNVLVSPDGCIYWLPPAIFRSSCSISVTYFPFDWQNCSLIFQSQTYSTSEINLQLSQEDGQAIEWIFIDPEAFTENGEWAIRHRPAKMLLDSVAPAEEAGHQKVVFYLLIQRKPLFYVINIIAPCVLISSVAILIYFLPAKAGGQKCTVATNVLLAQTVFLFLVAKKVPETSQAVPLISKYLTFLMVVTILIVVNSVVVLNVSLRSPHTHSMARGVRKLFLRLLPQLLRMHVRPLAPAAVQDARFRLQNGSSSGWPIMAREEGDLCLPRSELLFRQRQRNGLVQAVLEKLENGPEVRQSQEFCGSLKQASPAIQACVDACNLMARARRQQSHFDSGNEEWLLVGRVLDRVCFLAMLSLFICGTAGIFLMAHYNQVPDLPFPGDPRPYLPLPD
T3 sequence (P02716 25-520): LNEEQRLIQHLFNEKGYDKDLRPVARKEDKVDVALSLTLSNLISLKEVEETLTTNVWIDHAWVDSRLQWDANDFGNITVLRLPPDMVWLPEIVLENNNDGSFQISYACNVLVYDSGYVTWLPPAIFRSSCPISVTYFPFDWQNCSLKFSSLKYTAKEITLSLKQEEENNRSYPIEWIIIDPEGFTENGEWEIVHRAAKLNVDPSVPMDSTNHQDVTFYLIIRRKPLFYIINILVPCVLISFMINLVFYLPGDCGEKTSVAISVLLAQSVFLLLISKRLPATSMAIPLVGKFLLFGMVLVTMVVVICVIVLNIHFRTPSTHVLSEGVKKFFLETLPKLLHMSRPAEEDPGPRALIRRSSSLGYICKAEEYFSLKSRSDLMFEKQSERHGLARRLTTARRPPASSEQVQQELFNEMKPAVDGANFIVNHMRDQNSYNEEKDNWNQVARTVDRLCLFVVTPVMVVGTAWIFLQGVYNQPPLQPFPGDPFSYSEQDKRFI
T1 sequence (P36544 23-502): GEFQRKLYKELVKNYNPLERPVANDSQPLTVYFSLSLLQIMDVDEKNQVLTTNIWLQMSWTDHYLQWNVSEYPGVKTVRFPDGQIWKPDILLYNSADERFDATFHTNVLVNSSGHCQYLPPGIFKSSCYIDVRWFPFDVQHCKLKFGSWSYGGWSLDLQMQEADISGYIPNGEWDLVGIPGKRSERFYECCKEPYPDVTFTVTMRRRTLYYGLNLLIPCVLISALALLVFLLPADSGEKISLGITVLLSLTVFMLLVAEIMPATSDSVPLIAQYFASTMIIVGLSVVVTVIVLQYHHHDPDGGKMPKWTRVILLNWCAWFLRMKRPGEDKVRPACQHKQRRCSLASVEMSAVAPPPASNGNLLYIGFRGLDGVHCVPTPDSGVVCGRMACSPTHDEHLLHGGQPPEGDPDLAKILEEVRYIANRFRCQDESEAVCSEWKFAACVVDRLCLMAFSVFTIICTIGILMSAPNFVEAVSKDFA
T2 sequence (P09483 31-630): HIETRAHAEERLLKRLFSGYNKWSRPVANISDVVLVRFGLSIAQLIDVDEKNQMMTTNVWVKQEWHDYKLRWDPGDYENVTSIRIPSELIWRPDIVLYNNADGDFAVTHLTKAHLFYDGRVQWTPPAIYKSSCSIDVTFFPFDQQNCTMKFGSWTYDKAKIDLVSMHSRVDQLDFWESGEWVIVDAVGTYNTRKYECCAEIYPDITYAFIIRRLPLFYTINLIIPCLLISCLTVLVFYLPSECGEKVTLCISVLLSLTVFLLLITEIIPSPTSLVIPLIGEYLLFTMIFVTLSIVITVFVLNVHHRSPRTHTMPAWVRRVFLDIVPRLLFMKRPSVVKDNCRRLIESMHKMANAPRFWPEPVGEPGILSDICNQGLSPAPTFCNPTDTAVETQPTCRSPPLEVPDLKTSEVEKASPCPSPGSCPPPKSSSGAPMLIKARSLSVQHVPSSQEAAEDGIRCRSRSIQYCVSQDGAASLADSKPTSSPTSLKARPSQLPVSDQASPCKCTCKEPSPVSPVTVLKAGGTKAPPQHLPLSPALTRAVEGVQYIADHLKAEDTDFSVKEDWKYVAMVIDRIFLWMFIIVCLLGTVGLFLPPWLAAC
T2 sequence (P12390 25-500): as the sequence (P12390 25-500) above
T6 sequence (P09483 31-630, stated change not applied): as the sequence (P09483 31-630) above
T6 sequence (P12390 25-500 V277F): as the sequence (P12390 25-500) above, with V253F counted along it
T7 sequence (P09483 31-630): as the sequence (P09483 31-630) above
T7 sequence (P12392 21-495): as the sequence (P12392 21-495 F275V) above, with V255F counted along it

For `CCCC(=O)N[C@@H](Cc1ccc(O)cc1)C(=O)NCCCCCCCCCCCCN` [PhTX-12], the IC50 (α7 nAChR; Late, α7, VH −60 mV, based on the area under the current trace (no stable late current)) was 8320 nM, the IC50 (α7 nAChR; Late, α7, VH −80 mV, based on the area under the current trace (no stable late current)) was 4900 nM and 4920 nM and the IC50 (α7 nAChR; Late, α7, VH −100 mV, based on the area under the current trace (no stable late current)) was 5020 nM. The IC50 (α7 nAChR; Peak, α7, VH −60 mV, peak current) was 18700 nM, the IC50 (α7 nAChR; Peak, α7, VH −80 mV, peak current) was 11100 nM and the IC50 (α7 nAChR; Peak, α7, VH −100 mV, peak current) was 12100 nM. The “recovery of the late current after 6 min” value (α7 nAChR; α7, 10 μM toxin, −80 mV) was “complete”, the “times less sensitive than the most sensitive subtype” value (α7 nAChR; α7 vs α3β4 (for PhTX-12: α1β1γδ along with α3β4), late current IC50, −80 mV) was 49 times and the “lower potency at human muscle-type nAChRs in TE671 cells than in the present study” value [1] was 11 fold. For the same compound, the IC50 (α4β2 nAChR; Late, α4β2, VH −60 mV, late current (1 min)) was 230 nM, the IC50 (α4β2 nAChR; Late, α4β2, VH −80 mV, late current (1 min)) was 280 nM and the IC50 (α4β2 nAChR; Late, α4β2, VH −100 mV, late current (1 min)) was 44 nM. It also gave an IC50 (α4β2 nAChR; Peak, α4β2, VH −60 mV, peak current) of 3870 nM, an IC50 (α4β2 nAChR; Peak, α4β2, VH −80 mV, peak current) of 2170 nM and an IC50 (α4β2 nAChR; Peak, α4β2, VH −100 mV, peak current) of 1640 nM. For the same compound, the “times less sensitive than the most sensitive subtype” value (α4β2 nAChR; α4β2 vs α3β4 (for PhTX-12: α1β1γδ along with α3β4), late current IC50, −80 mV) was 3 times, the IC50 (α1β1γδ nAChR; Late, VH −60 mV, late current (1 min)) was 70 nM and the IC50 (α1β1γδ nAChR; Late, VH −80 mV, late current (1 min)) was 100 nM. The IC50 (α1β1γδ nAChR; Late, VH −100 mV, late current (1 min)) was 71 nM, the IC50 (α1β1γδ nAChR; Peak, VH −60 mV, peak current) was 3160 nM and the IC50 (α1β1γδ nAChR; Peak, VH −80 mV, peak current) was 6180 nM. For the same compound, the IC50 (α1β1γδ nAChR; Peak, VH −100 mV, peak current) was 5020 nM, the “surmountability of late current inhibition” value (α1β1γδ nAChR; 0.3 μM toxin, late current, −80 mV) was “insurmountable” and the “surmountability of peak current inhibition by increasing ACh concentrations” value (α1β1γδ nAChR; 10 μM toxin, peak current, −80 mV) was “surmountable”. For the same compound, the “voltage dependence of inhibition, late current” value (α1β1γδ nAChR; late current IC50 values, VH −60 to −100 mV) was “voltage-independent”, the IC50 (α3β4 nAChR; IC50 (95% CI), Late, α3β4, VH −60 mV, late current (1 min), ACh 100 μM) was 110 nM and the IC50 (α3β4 nAChR; IC50 (95% CI), Late, α3β4, VH −80 mV, late current (1 min), ACh 100 μM) was 110 nM. It also gave an IC50 (α3β4 nAChR; IC50 (95% CI), Late, α3β4, VH −100 mV, late current (1 min), ACh 100 μM) of 27 nM, an IC50 (α3β4 nAChR; IC50 (95% CI), Peak, α3β4, VH −60 mV, peak current, ACh 100 μM) of 3090 nM and an IC50 (α3β4 nAChR; IC50 (95% CI), Peak, α3β4, VH −80 mV, peak current, ACh 100 μM) of 2620 nM. The IC50 (α3β4 nAChR; IC50 (95% CI), Peak, α3β4, VH −100 mV, peak current, ACh 100 μM) was 2030 nM, the IC50 (α3β4 nAChR; IC50, α3β4, late current, −80 mV) was 100 nM and the “surmountability of late current inhibition” value (α3β4 nAChR; α3β4, 0.3 μM toxin, late current, −80 mV) was “insurmountable”. The “surmountability of peak current inhibition by higher ACh concentrations” value (α3β4 nAChR; α3β4, 10 μM toxin, peak current, −80 mV) was “surmountable”, the “peak current during the first ACh application after removal of toxin (6 min)” value (α3β4 nAChR; α3β4, after 10 μM toxin, mean of all cells, −80 mV, not significantly greater than control (p = 0.217)) was 119.4 % control response and the IC50 (α3β2 nAChR; Late, α3β2, VH −60 mV, late current (1 min)) was 3200 nM. The IC50 (α3β2 nAChR; Late, α3β2, VH −80 mV, late current (1 min)) was 2570 nM, the IC50 (α3β2 nAChR; Late, α3β2, VH −100 mV, late current (1 min)) was 1380 nM and the IC50 (α3β2 nAChR; Peak, α3β2, VH −60 mV, peak current) was 65200 nM. The IC50 (α3β2 nAChR; Peak, α3β2, VH −80 mV, peak current) was 60000 nM and 60600 nM, the IC50 (α3β2 nAChR; Peak, α3β2, VH −100 mV, peak current) was 74400 nM and the “recovery of the late current after 6 min” value (α3β2 nAChR; α3β2, 10 μM toxin, −80 mV) was “complete”. The “recovery of the peak current after 6 min” value (α3β2 nAChR; α3β2, 10 μM toxin, −80 mV) was “complete”, the “times less sensitive than the most sensitive subtype” value (α3β2 nAChR; α3β2 vs α3β4 (for PhTX-12: α1β1γδ along with α3β4), late current IC50, −80 mV) was 26 times and the “effect on membrane current when applied alone” value (nAChRs; 100 μM applied alone, VH = −80 mV, oocytes expressing nAChRs) was “did not produce any effect on membrane current”. The “voltage dependence of inhibition of peak current” value (nAChRs; all nAChRs, peak current, VH −60 to −100 mV) was “voltage-independent for all nAChRs except for homomeric α7”, the “reversibility of inhibition of nAChRs” value (nAChRs; all subunit combinations, 10 μM toxin, −80 mV) was “fully or almost reversible after 6 min” and the “increase in late current IC50 as compared to α3β4” value (α3β4(F255V) nAChR; α3β4(F255V) vs α3β4, late current, −80 mV) was 3.3 fold. The “reduction in peak current IC50 as compared to α3β4” value (α3β4(F255V) nAChR; α3β4(F255V) vs α3β4, peak current, −80 mV) was “no difference”, the IC50 (α3β4(F255V) nAChR; [2]) was 520 nM and the IC50 (α3β4(F255V) nAChR; [3]) was 1630 nM. It also gave an IC50 (α3β4(F255V) nAChR; [4]) of 360 nM, an IC50 (α3β4(F255V) nAChR; [5]) of 2780 nM and an IC50 (α3β4(F255V) nAChR; [6]) of 68 nM. The IC50 (α3β4(F255V) nAChR; [7]) was 1050 nM, the “reduction in late current IC50 as compared to α4β2” value (α4β2(V253F) nAChR; α4β2(V253F) vs α4β2, late current, −80 mV) was “no significant differences” and the “change in peak current IC50 as compared to α4β2” value (α4β2(V253F) nAChR; α4β2(V253F) vs α4β2, peak current, −80 mV) was “no significant differences”. For the same compound, the IC50 (α4β2(V253F) nAChR; [2]) was 410 nM, the IC50 (α4β2(V253F) nAChR; [3]) was 2220 nM and the IC50 (α4β2(V253F) nAChR; [4]) was 300 nM. It also gave an IC50 (α4β2(V253F) nAChR; [5]) of 4050 nM, an IC50 (α4β2(V253F) nAChR; [6]) of 190 nM and an IC50 (α4β2(V253F) nAChR; [7]) of 3480 nM. The IC50 (α4β4 nAChR; Late, α4β4, VH −60 mV, late current (1 min)) was 250 nM, the IC50 (α4β4 nAChR; Late, α4β4, VH −80 mV, late current (1 min)) was 290 nM and the IC50 (α4β4 nAChR; Late, α4β4, VH −100 mV, late current (1 min)) was 190 nM. For the same compound, the IC50 (α4β4 nAChR; Peak, α4β4, VH −60 mV, peak current) was 1210 nM, the IC50 (α4β4 nAChR; Peak, α4β4, VH −80 mV, peak current) was 1650 nM and the IC50 (α4β4 nAChR; Peak, α4β4, VH −100 mV, peak current) was 2770 nM. For the same compound, the “voltage dependence of inhibition, late current” value (α4β4 nAChR; α4β4, late current IC50 values, VH −60 to −100 mV) was “voltage-independent” and the “times less sensitive than the most sensitive subtype” value (α4β4 nAChR; α4β4 vs α3β4 (for PhTX-12: α1β1γδ along with α3β4), late current IC50, −80 mV) was 3 times.

— paper PMC5128878 (Scientific Reports, 2016)
